Measured values taken from patent US8765779B2, “Tricyclic derivatives and their pharmaceutical use and compositions” (Cephalon, Inc., priority 2009, dated 2014).
Counter-ions that a name gives are not always drawn.

melting point	SMILES
298 to 301 °C (dec.)	CC1OCCC12NCCc1c2oc2cc(S(=O)(=O)c3cccc(F)c3)ccc12 (single isomer, unassigned) (as salt: HCl) [Example 60, 7-[(3-Fluorophenyl)sulfonyl]-2′-methyl-3,4,4′,5′-tetrahydro-2H-spiro[1-benzofuro[2,3-c]pyridine-1,3′-furan]]
187 to 190 °C	Cn1cnc(COc2cccc(S(=O)(=O)c3ccc4c(c3)OC3CNCCC43)c2)n1 (stereo not drawn) (as salt: HCl) [Example 560]
148 to 155 °C (dec.)	CC(C)Oc1cccc(S(=O)(=O)c2ccc3c4c(oc3c2)C2(CCCOC2)NCC4)c1 (racemic) (as salt: HCl) [Example 23, 7-{[3-(propan-2-yloxy)phenyl]sulfonyl}-3,4,5′,6′-tetrahydro-2H,4′H-spiro[1-benzofuro[2,3-c]pyridine-1,3′-pyran]]
> 290 °C	CNC(=O)c1cccc(S(=O)(=O)c2ccc3c4c(oc3c2)CNCC4)c1 (as salt: HCl) [Example 478]
220 to 225 °C (dec.)	CC(C)C(=O)NCC1(C)NCCc2c1oc1cc(S(=O)(=O)c3cccc(F)c3)ccc21 (stereo not drawn) (as salt: HCl) [Example 491, N-[7-(3-Fluoro-benzenesulfonyl)-1-methyl-1,2,3,4-tetrahydro-benzofuro[2,3-c]pyridin-1-ylmethyl]-isobutyramide]
189 to 190 °C	N#CCCCCOc1cccc(S(=O)(=O)c2ccc3c(c2)OC2CNCCC32)c1 (stereo not drawn) (as salt: HCl) [Example 574]
195 to 196 °C	O=C(COc1cccc(S(=O)(=O)c2ccc3c(c2)OC2CNCCC32)c1)N1CCCC1 (stereo not drawn) (as salt: HCl) [Example 564]
208 to 210 °C	O=S(=O)(c1cccc(OCC2CC2)c1)c1ccc2c(c1)OC1CNCCC21 (stereo not drawn) (as salt: HCl) [Example 555]
245 to 248 °C	CN(C)C(=O)c1c(F)cccc1S(=O)(=O)c1ccc2c3c(oc2c1)CNCC3 (as salt: HCl) [Example 479]
200 to 201 °C	N#Cc1cccc(COc2cccc(S(=O)(=O)c3ccc4c(c3)OC3CNCCC43)c2)c1 (stereo not drawn) (as salt: HCl) [Example 552]
201 to 202 °C	Cc1c(OCC2CCOCC2)cccc1S(=O)(=O)c1ccc2c(c1)OC1CNCCC21 (stereo not drawn) (as salt: HCl) [Example 582]
247 to 250 °C	CC1(C(F)F)NCCc2c1oc1cc(S(=O)(=O)c3cccc(F)c3F)ccc21 (single isomer, unassigned; enantiomer 1) (as salt: HCl) [Example 471, 1-(Difluoromethyl)-7-[(2,3-difluorophenyl)sulfonyl]-1-methyl-1,2,3,4-tetrahydro[1]benzofuro[2,3-c]pyridine, enantiomer 1]
283 to 286 °C	CN(C)C(=O)c1c(F)cccc1S(=O)(=O)c1ccc2c(c1)OC1CNCCC21 (stereo not drawn) (as salt: HCl) [Example 476]
206 to 208 °C	CCCCOc1cccc(S(=O)(=O)c2ccc3c(c2)OC2CNCCC32)c1 (stereo not drawn) (as salt: HCl) [Example 554]
298 to 300 °C (dec.)	O=S1(=O)CCC2(CC1)NCCc1c2oc2cc(S(=O)(=O)c3cccc(F)c3)ccc12 (as salt: HCl) [Example 38, 7-[(3-fluorophenyl)sulfonyl]-2′,3,3′,4,5′,6′-hexahydro-2H-spiro[1-benzofuro[2,3-c]pyridine-1,4′-thiopyran] 1′,1′-dioxide]
> 250 °C (dec.)	CC1(C2CC2)NCCc2c1oc1cc(S(=O)(=O)c3cccc(F)c3)ccc21 (racemic) (as salt: HCl) [Example 29, 1-cyclopropyl-7-[(3-fluorophenyl)sulfonyl]-1-methyl-1,2,3,4-tetrahydro[1]benzofuro[2,3-c]pyridine]
203 to 204 °C	O=S(=O)(c1cc(F)cc(OCC2CCOCC2)c1)c1ccc2c(c1)OC1CNCCC21 (stereo not drawn) (as salt: HCl) [Example 591]
203 to 204 °C	N#Cc1ccc(COc2cccc(S(=O)(=O)c3ccc4c(c3)OC3CNCCC43)c2)cc1 (stereo not drawn) (as salt: HCl) [Example 551]
215 to 217 °C	Cc1cc(COc2cccc(S(=O)(=O)c3ccc4c(c3)OC3CNCCC43)c2)no1 (stereo not drawn) (as salt: HCl) [Example 565]
262 to 265 °C	CC1OCCC12NCCc1c2oc2cc(S(=O)(=O)c3cccc(F)c3)ccc12 (single isomer, unassigned) (as salt: HCl) [Example 59, 7-[(3-Fluorophenyl)sulfonyl]-2′-methyl-3,4,4′,5′-tetrahydro-2H-spiro[1-benzofuro[2,3-c]pyridine-1,3′-furan]]
185 to 187 °C	O=S(=O)(c1ccc2c(c1)OC1CNCCC21)c1cccc(OCC2CCOCC2)c1Cl (stereo not drawn) (as salt: HCl) [Example 485]
243 to 245 °C	CC(C)Oc1cccc(S(=O)(=O)c2ccc3c4c(oc3c2)C(C)(C)NCC4)c1 (as salt: HCl) [Example 15, 1,1-dimethyl-7-{[3-(propan-2-yloxy)phenyl]sulfonyl}-1,2,3,4-tetrahydro[1]benzofuro[2,3-c]pyridine]
220 to 223 °C	CN(C)C(=O)CC1(C)NCCc2c1oc1cc(S(=O)(=O)c3cccc(F)c3)ccc21 (racemic) (as salt: HCl) [Example 40, 2-{7-[(3-fluorophenyl)sulfonyl]-1-methyl-1,2,3,4-tetrahydro[1]benzofuro[2,3-c]pyridin-1-yl}-N,N-dimethylacetamide]
196 to 198 °C	COCC1(COC)NCCc2c1oc1cc(S(=O)(=O)c3cccc(F)c3)ccc21 (as salt: HCl) [Example 39, 7-[(3-fluorophenyl)sulfonyl]-1,1-bis(methoxymethyl)-1,2,3,4-tetrahydro[1]benzofuro[2,3-c]pyridine]
217 to 227 °C	CC(=O)NCC1(C)NCCc2c1oc1cc(S(=O)(=O)c3cccc(F)c3)ccc21 (stereo not drawn) (as salt: HCl) [Example 631, N-({7-[(3-fluorophenyl)sulfonyl]-1-methyl-1,2,3,4-tetrahydro[1]benzofuro[2,3-c]pyridin-1-yl}methyl)acetamide]

SMILES	melting point
Cc1ccnc(S(=O)(=O)c2ccc3c(c2)OC2CNCCC32C)n1 (racemic) (as salt: HCl) [Example 7, 4a-methyl-7-[(4-methylpyrimidin-2-yl)sulfonyl]-1,2,3,4,4a,9a-hexahydro[1]benzofuro[2,3-c]pyridine]	199 to 201 °C
COc1ccc(S(=O)(=O)c2ccc3c(c2)OC2CNCCC32C)cc1 (racemic) (as salt: HCl) [Example 5, 7-[(4-methoxyphenyl)sulfonyl]-4a-methyl-1,2,3,4,4a,9a-hexahydro[1]benzofuro[2,3-c]pyridine]	283 to 284 °C
COc1c(F)cc(F)cc1S(=O)(=O)c1ccc2c(c1)OC1CNCCC21C (stereo not drawn) (as salt: HCl) [Example 486]	259 to 261 °C
CC(C)Oc1cccc(S(=O)(=O)c2ccc3c(c2)OC2CNCCC32C)c1 (racemic) (as salt: HCl) [Example 12, 4a-methyl-7-{[3-(propan-2-yloxy)phenyl]sulfonyl}-1,2,3,4,4a,9a-hexahydro[1]benzofuro[2,3-c]pyridine]	206 to 208 °C
CC12CCNCC1Oc1ccc(S(=O)(=O)c3ccncc3)cc12 (racemic) (as salt: HCl) [Example 13, 4a-methyl-6-(pyridin-4-ylsulfonyl)-1,2,3,4,4a,9a-hexahydro[1]benzofuro[2,3-c]pyridine]	186 to 188 °C
